Earlier results, collected in patent US20200390702A1, “LIPOSOMAL TAXANES FOR TREATMENT OF SCLC” (Plus Therapeutics, Inc., priority 2017, published 2020).
Read-outs that look alike come from different tables or passages of the source.

Tested on: SCLC
Details: intravenous

In the case of CC[C@@]1(O)C(=O)OCc2c1cc1n(c2=O)Cc2cc3c(CN(C)C)c(O)ccc3nc2-1 [Topotecan], the response rate (chemotherapy-refractory relapsed cases) is listed as 4.0% and the response rate (chemotherapy-sensitive relapsed cases) is listed as 20.4%.
